Measured values as given in PMC9394284, “Discovery of Novel Dual Adenosine A2A and A1 Receptor Antagonists with 1H-Pyrazolo[3,4-d]pyrimidin-6-amine Core Scaffold as Anti-Parkinson’s Disease Agents” (Pharmaceuticals, 2022).
Entries after “also recorded” stand apart in the source; their conditions may differ.

Tests used:
[1] = system: MPTP-lesioned mouse model; assay: MPTP-lesioned mouse model of Parkinson's disease; format: in vivo, C57BL/6J mice
Source text: In a subsequent study, we investigated the therapeutic efficacy of 11o in PD using an MPTP-lesioned mouse model. This MPTP-lesion mouse model is one of the most well-established PD models and causes an approximately 90% loss of striatal dopamine, as analyzed using HPLC 7 days after the administration of the last dose of MPTP [13].
Male C57BL/6J mice of 10 weeks of age were purchased from Charles River Laboratories (Charles River Laboratories, Freiburg, Germany) and maintained at QPS Austria. All procedures described were reviewed and approved by IACUC at QPS Austria. Animal studies conformed to the Austrial guidelines for the care and use of laboratory animals (Tierversuchsgesetz 2012-TVG 2012, BGB1. I Nr. 114/2012). […]
To test individual nest-building behavior, mice were housed individually in cages containing wood-chip bedding and one square of pressed cotton (‘nestlet’). […] The nestlet was introduced on the day before the evaluation of the nest status in about 2 to 3 h before the dark phase was initiated, and the nest-building behavior was evaluated on the following day of the experiment within 2~3 h after the light-phase start. […] Manipulation of the nestlet and the constitution of the built nest were assessed according to five-point scale as follows: 1. […]

TA98 and TA100 = assay: AMES bacterial reverse-mutation test; format: cell-based; conditions: up to 1867 μg/plate; TA98 and TA100, with and without S9
Protocol: The mutagenic potential of 11o was also tested by assessing its ability to reverse mutations in a bacterial mutagenesis study.
AMES bacterial reverse-mutation test was performed at Frontage laboratories inc. (Frontage laboratories, Concord, OH, USA) according to testing facility’s standard operating procedures (SOPs) following OECD guideline 471, “Bacterial Reverse Mutation Test”, and ICH S2(R1), “Guidance on Genotoxicity Testing and Data Interpretation for Pharmaceuticals Intended for Human Use”[19]. Briefly, test system was exposed to test article via plate-incorporation methodology originally described by Ames et al. and updated by Maron and Ames. […] For mutagenicity assay, TA98 and TA100 (tester strains source: Molecular Toxicology Inc. (Boone, NC, USA). TA98 lot number 5464D, part number 71–098L; TA100 lot number 5439D, part number 71–100L) was exposed to vehicle alone and at least 8 concentrations of 11o, with duplicate plates/condition, in both the presence and absence of S9 using the plate incorporation method. […] Following incubation, plates were examined for the condition of the bacterial background lawn and precipitate and recorded. Colonies were enumerated either by visually or by an automatic colony counter (Scan 1200 Automated colony counter and scan software).

[2] = metabolic stability in cryopreserved dog hepatocytes; conditions: dog hepatocytes; 1 μM 11o; little/no compound depletion
Protocol: Metabolic stability of 11o was determined in cryopreserved hepatocytes from mice, rats, dogs, monkeys and human according to the SOPs of Frontage Laboratories Inc. Briefly, cryopreserved hepatocytes for pre-clinical animals and for human (BioIVT, Westbury, NY, USA) were thawed in a 37 °C water bath with gentle shaking until ice had almost melted. The suspensions were immediately transferred to a centrifuge tube (50 mL) containing pre-warmed thawing media at 37 °C with gentle handshaking to prevent the cells from settling. Cell suspensions were centrifuged at 50× g and 4 °C for 5 min. The supernatant was discarded and the pellets were resuspended in prewarmed incubation media (5 mL) at 37 °C. The percentage of viable cells in the suspension was determined by Trypan blue staining method to ensure viability of ≥70 %. […] The samples were centrifuged and aliquots of the supernatant were analyzed for parent compounds by LC/MS/MS using suitable multiple reaction monitoring (MRM) transitions. […] The disappearance of 11o and midazolam was monitored by LC/MS/MS (MRM) analysis of the hepatocyte extracts at each time point. The peak area ratio of the analyte to internal standard was obtained for each sample and the rate of disappearance of 11o was assessed by comparing the peak area ratios at various time points to the peak area ratio obtained at t = 0. The t1/2 is obtained (using the linear portion of semi-log plot of the area ratio vs. time) and the CLint values determined using well-stirred model.

For `Cc1cc(Cn2ncc3c(-c4cccc(C#N)c4F)nc(N)nc32)ccc1N` [11o, 3-(6-Amino-1-(4-amino-3-methylbenzyl)-1H-pyrazolo[3,4-d]pyrimidin-4-yl)-2-fluorobenzonitrile], the nest-building activity ([1]; MPTP-lesioned mice, intranasal 1 and 10 mg/kg, difference not significant) was “partially restored the activity level to near sham level”, the “rescue of striatal dopamine depletion caused by MPTP” value ([1]; once daily for 7 days, doses up to 10 mg/kg, data not shown) was “unable to rescue dopamine depletion” and the AMES mutagenicity (TA98 and TA100) was “did not cause any positive mutagenic response; also recorded: no mutagenicity up to 1867 μg/plate”. The “stability in dog hepatocytes (in words)” value [2] was “stable in dog hepatocytes”.
